Assay: xn = mol fraction of the nth substance listed
Details: Liquid; for speed of sound: Pulse-echo method

CCCCCCCCCCCC [dodecane] + CCCCCCC
Details | mass density [kg/m3] | speed of sound [m/s]
303.17 K, 101 kPa, x2 = 0.2001 | – | 1238.5
308.11 K, 30390 kPa, x2 = 0.9391 | – | 1298.5
308.11 K, 30390 kPa, x2 = 0.97 | – | 1294.9
308.11 K, 45590 kPa, x2 = 0.9391 | – | 1376.1
308.11 K, 45590 kPa, x2 = 0.97 | – | 1373
308.11 K, 60790 kPa, x2 = 0.9391 | – | 1445.9
308.11 K, 60790 kPa, x2 = 0.97 | – | 1443.2
308.11 K, 75990 kPa, x2 = 0.9391 | – | 1509.5
308.11 K, 75990 kPa, x2 = 0.97 | – | 1507.2
308.11 K, 91180 kPa, x2 = 0.9391 | – | 1568
308.11 K, 101320 kPa, x2 = 0.4999 | – | 1649.5
308.11 K, 101320 kPa, x2 = 0.9391 | – | 1605.3
308.11 K, 101320 kPa, x2 = 0.97 | – | 1603.3
308.12 K, 101 kPa, x2 = 0 | – | 1240.2
308.12 K, 101 kPa, x2 = 0.6 | – | 1164.6
308.12 K, 101 kPa, x2 = 0.8995 | – | 1109.6
308.12 K, 15200 kPa, x2 = 0.9391 | – | 1209.5
308.12 K, 15200 kPa, x2 = 0.97 | – | 1205.4
308.12 K, 45590 kPa, x2 = 0.1014 | – | 1468.2
308.12 K, 45590 kPa, x2 = 0.4999 | – | 1432.7
308.12 K, 60790 kPa, x2 = 0.1014 | – | 1531
308.12 K, 75990 kPa, x2 = 0.1014 | – | 1589.4
308.12 K, 91180 kPa, x2 = 0.1014 | – | 1643.8
308.12 K, 91180 kPa, x2 = 0.4999 | – | 1614.6
308.12 K, 91180 kPa, x2 = 0.97 | – | 1565.8
308.12 K, 101320 kPa, x2 = 0.1014 | – | 1677.8
308.13 K, 101 kPa, x2 = 0.3002 | – | 1207.1
308.13 K, 101 kPa, x2 = 0.7002 | – | 1147.7
308.13 K, 101 kPa, x2 = 0.8 | – | 1129.6
308.13 K, 15200 kPa, x2 = 0.1014 | – | 1321.5
308.13 K, 15200 kPa, x2 = 0.4999 | – | 1278.8
308.13 K, 30390 kPa, x2 = 0.1014 | – | 1398.8
308.13 K, 30390 kPa, x2 = 0.3007 | – | 1379.7
308.13 K, 30390 kPa, x2 = 0.4999 | – | 1360.2
308.13 K, 30390 kPa, x2 = 0.5003 | – | 1360.2
308.13 K, 30390 kPa, x2 = 0.7007 | – | 1334.7
308.13 K, 45590 kPa, x2 = 0.3007 | – | 1450.6
308.13 K, 45590 kPa, x2 = 0.7007 | – | 1409.4
308.13 K, 60790 kPa, x2 = 0.4999 | – | 1498.1
308.13 K, 60790 kPa, x2 = 0.5003 | – | 1498.2
308.13 K, 60790 kPa, x2 = 0.7007 | – | 1476.6
308.13 K, 75990 kPa, x2 = 0 | – | 1596.8
308.13 K, 75990 kPa, x2 = 0.4999 | – | 1558.1
308.13 K, 75990 kPa, x2 = 0.5003 | – | 1558.2
308.13 K, 75990 kPa, x2 = 0.7007 | – | 1537.9
308.13 K, 91180 kPa, x2 = 0 | – | 1650.9
308.13 K, 91180 kPa, x2 = 0.3007 | – | 1629.5
308.13 K, 91180 kPa, x2 = 0.5003 | – | 1614.7
308.13 K, 91180 kPa, x2 = 0.7007 | – | 1595.3
308.13 K, 101320 kPa, x2 = 0.3007 | – | 1664.1
308.13 K, 101320 kPa, x2 = 0.5003 | – | 1649.8
308.13 K, 101320 kPa, x2 = 0.7007 | – | 1631.3
308.14 K, 101 kPa, x2 = 0.3996 | – | 1194.1
308.14 K, 15200 kPa, x2 = 0 | – | 1331
308.14 K, 15200 kPa, x2 = 0.3007 | – | 1300.4
308.14 K, 15200 kPa, x2 = 0.5003 | – | 1278.7
308.14 K, 15200 kPa, x2 = 0.7007 | – | 1250.1
308.14 K, 30390 kPa, x2 = 0 | – | 1407.6
308.14 K, 45590 kPa, x2 = 0 | – | 1476.3
308.14 K, 45590 kPa, x2 = 0.5003 | – | 1432.6
308.14 K, 60790 kPa, x2 = 0 | – | 1538.6
308.14 K, 60790 kPa, x2 = 0.3007 | – | 1515
308.14 K, 75990 kPa, x2 = 0.3007 | – | 1574.3
308.15 K, 101 kPa, x2 = 0 | 738.031 | –
308.15 K, 101 kPa, x2 = 0.0991 | 733.816 | –
308.15 K, 101 kPa, x2 = 0.1007 | – | 1230
308.15 K, 101 kPa, x2 = 0.2001 | – | 1219
308.15 K, 101 kPa, x2 = 0.2008 | 729.111 | –
308.15 K, 101 kPa, x2 = 0.2998 | 724.073 | –
308.15 K, 101 kPa, x2 = 0.3996 | 718.583 | –
308.15 K, 101 kPa, x2 = 0.5 | 712.522 | –
308.15 K, 101 kPa, x2 = 0.5002 | – | 1179.8
308.15 K, 101 kPa, x2 = 0.6 | 705.898 | –
308.15 K, 101 kPa, x2 = 0.7005 | 698.575 | –
308.15 K, 101 kPa, x2 = 0.7995 | 690.497 | –
308.15 K, 101 kPa, x2 = 0.8486 | 686.148 | –
308.15 K, 101 kPa, x2 = 0.8988 | 681.426 | –
308.15 K, 101 kPa, x2 = 0.9498 | 676.348 | –
308.15 K, 15200 kPa, x2 = 0.8496 | – | 1227.4
308.15 K, 30390 kPa, x2 = 0.8496 | – | 1314.4
308.15 K, 45590 kPa, x2 = 0.8496 | – | 1390.8
308.15 K, 60790 kPa, x2 = 0.8496 | – | 1459.7
308.15 K, 75990 kPa, x2 = 0.8496 | – | 1522.3
308.15 K, 91180 kPa, x2 = 0.8496 | – | 1580.4
308.15 K, 101320 kPa, x2 = 0.8496 | – | 1617.2
313.08 K, 15200 kPa, x2 = 0.9391 | – | 1191.3
313.08 K, 30390 kPa, x2 = 0.9391 | – | 1281.8
313.08 K, 45590 kPa, x2 = 0.9391 | – | 1360.6
313.08 K, 60790 kPa, x2 = 0.9391 | – | 1431.4
313.08 K, 75990 kPa, x2 = 0.9391 | – | 1495.6
313.08 K, 91180 kPa, x2 = 0.9391 | – | 1554.5
313.08 K, 101320 kPa, x2 = 0.4999 | – | 1636.7
313.08 K, 101320 kPa, x2 = 0.9391 | – | 1592.1
313.09 K, 30390 kPa, x2 = 0.97 | – | 1278.1
313.09 K, 45590 kPa, x2 = 0.97 | – | 1357.5
313.09 K, 60790 kPa, x2 = 0.4999 | – | 1483.8
313.09 K, 60790 kPa, x2 = 0.97 | – | 1428.5
313.09 K, 75990 kPa, x2 = 0.4999 | – | 1544.2
313.09 K, 75990 kPa, x2 = 0.97 | – | 1493.1
313.09 K, 91180 kPa, x2 = 0.4999 | – | 1601.2
313.09 K, 91180 kPa, x2 = 0.97 | – | 1552.3
313.09 K, 101320 kPa, x2 = 0.97 | – | 1589.9
313.1 K, 101 kPa, x2 = 0 | – | 1221
313.1 K, 101 kPa, x2 = 0.6 | – | 1144.4
313.1 K, 101 kPa, x2 = 0.8995 | – | 1088.5
313.1 K, 15200 kPa, x2 = 0.4999 | – | 1261.2
313.1 K, 15200 kPa, x2 = 0.97 | – | 1186.9
313.1 K, 30390 kPa, x2 = 0.4999 | – | 1344.1
313.1 K, 45590 kPa, x2 = 0.4999 | – | 1417.6
313.1 K, 60790 kPa, x2 = 0.7007 | – | 1462.1
313.1 K, 91180 kPa, x2 = 0.7007 | – | 1581.9
313.1 K, 101320 kPa, x2 = 0.1014 | – | 1665
313.11 K, 101 kPa, x2 = 0.3002 | – | 1187.6
313.11 K, 101 kPa, x2 = 0.3996 | – | 1174.4
313.11 K, 101 kPa, x2 = 0.7002 | – | 1127.3
313.11 K, 15200 kPa, x2 = 0.1014 | – | 1304
313.11 K, 15200 kPa, x2 = 0.3007 | – | 1282.9
313.11 K, 15200 kPa, x2 = 0.7007 | – | 1232.2
313.11 K, 30390 kPa, x2 = 0.1014 | – | 1382.7
313.11 K, 30390 kPa, x2 = 0.3007 | – | 1363.6
313.11 K, 30390 kPa, x2 = 0.5003 | – | 1344.2
313.11 K, 30390 kPa, x2 = 0.7007 | – | 1318.2
313.11 K, 45590 kPa, x2 = 0.1014 | – | 1453
313.11 K, 45590 kPa, x2 = 0.5003 | – | 1417.5
313.11 K, 45590 kPa, x2 = 0.7007 | – | 1393.8
313.11 K, 60790 kPa, x2 = 0.1014 | – | 1516.7
313.11 K, 60790 kPa, x2 = 0.5003 | – | 1483.9
